Data taken from patent publication US20060069132A1, “Azolecarboxamide herbicides” (priority 2004, published 2006).

How the values were obtained:
[1] = tested on: velvetleaf; assay: Test A pre-/postemergence herbicide test; assay type: in vivo, Abutilon theophrasti
Method in brief: (§1)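 Greenhouse injury scoring (0–100, complete control = 100) at approximately ten days follows simultaneous pre- and postemergence application. Soil received a directed spray after seeding; seedlings of 2–10 cm at the one- to two-leaf stage were sprayed to runoff.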

[2] = tested on: giant foxtail; assay: Test A pre-/postemergence herbicide test; assay type: in vivo, Setaria faberi
Method in brief: as §1

[3] = tested on: pigweed; assay: Test C pre-/postemergence herbicide test; assay type: in vivo, Amaranthus retroflexus
Method in brief: (§2)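 Pre/post spray; non-phytotoxic solvent + surfactant. Post-timing 1–4 leaves, 2–18 cm. Read-out: visual % control vs untreated, day 12–14, greenhouse.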

[4] = tested on: velvetleaf; assay: Test C pre-/postemergence herbicide test; assay type: in vivo, Abutilon theophrasti
Method in brief: as §2

[5] = tested on: lambsquarters; assay: Test C pre-/postemergence herbicide test; assay type: in vivo, Chenopodium album
Method in brief: as §2

[6] = tested on: kochia; assay: Test C pre-/postemergence herbicide test; assay type: in vivo, Kochia scoparia
Method in brief: as §2

[7] = tested on: morningglory; assay: Test A pre-/postemergence herbicide test; assay type: in vivo, Ipomoea spp.
Method in brief: as §1

[8] = tested on: Surinam grass; assay: Test C pre-/postemergence herbicide test; assay type: in vivo, Urochloa decumbens
Method in brief: as §2

[9] = tested on: corn; assay: Test C pre-/postemergence herbicide test; assay type: in vivo, Zea mays
Method in brief: as §2

[10] = Postemergence, 500 g ai/ha, 0 to 100 scale, 0 no effect, 100 complete control
[11] = Postemergence, 2000 g ai/ha, 0 to 100 scale, 0 no effect, 100 complete control
[12] = Preemergence, 2000 g ai/ha, visual rating, 0 to 100 scale (0 no effect, 100 complete control)
[13] = preemergence, 500 g ai/ha, visual injury, 0 to 100 scale (0 no effect, 100 complete control)
[14] = 62 g ai/ha, preemergence, scale 0 to 100
[15] = 125 g ai/ha, scale 0 (no effect) to 100 (complete control), visual, 12 to 14 days, preemergence
[16] = 250 g ai/ha, scale 0-100, preemergence
[17] = 500 g ai/ha, scale 0 to 100 (0 no effect, 100 complete control), visual, 12 to 14 days, preemergence
[18] = Postemergence, 500 g ai/ha, scale 0 to 100
[19] = Postemergence, 250 g ai/ha, scale 0 to 100, 0 no effect, 100 complete control
[20] = postemergence, 125 g ai/ha, scale 0 to 100
[21] = postemergence, 62 g ai/ha, scale 0 to 100

C=CCNC(=O)c1cccc(NC(=O)c2cc(C(C)(C)C)nn2C)n1 [Compound 318]
Velvetleaf plant response rating [1, 10]: 40
Plant response rating, Velvetleaf [1, 11]: 50
Velvetleaf plant response rating [1, 12]: 80
Velvetleaf plant response rating [1, 13]: 30
Foxtail, Giant plant response rating [2, 10]: 50
Plant response rating, Foxtail, Giant [2, 11]: 90
Foxtail, Giant plant response rating [2, 12]: 85
Foxtail, Giant plant response rating [2, 13]: 40
Plant response rating, Pigweed [3, 14]: 80
Plant response rating, Pigweed [3, 15]: 95
Plant response rating, Pigweed [3, 16]: 100
Plant response rating, Pigweed [3, 17]: 100
Pigweed plant response rating [3, 18]: 100
Plant response rating, Pigweed [3, 19]: 100
Plant response rating, Pigweed [3, 20]: 100
Plant response rating, Pigweed [3, 21]: 100
Plant response rating, Velvetleaf [4, 14]: 60
Plant response rating, Velvetleaf [4, 16]: 100
Plant response rating, Velvetleaf [4, 17]: 100
Velvetleaf plant response rating [4, 18]: 60
Plant response rating, Velvetleaf [4, 19]: 40
Plant response rating, Velvetleaf [4, 20]: 35
Plant response rating, Velvetleaf [4, 21]: 0
Plant response rating, Lambsquarters [5, 14]: 80
Plant response rating, Lambsquarters [5, 15]: 95
Plant response rating, Lambsquarters [5, 16]: 100
Plant response rating, Lambsquarters [5, 17]: 100
Lambsquarters plant response rating [5, 18]: 100
Plant response rating, Lambsquarters [5, 19]: 100
Plant response rating, Lambsquarters [5, 20]: 70
Plant response rating, Lambsquarters [5, 21]: 60
Plant response rating, Kochia [6, 14]: 10
Plant response rating, Kochia [6, 15]: 60
Plant response rating, Kochia [6, 16]: 85
Plant response rating, Kochia [6, 17]: 100
Kochia plant response rating [6, 18]: 60
Plant response rating, Kochia [6, 19]: 60
Plant response rating, Kochia [6, 20]: 10
Plant response rating, Kochia [6, 21]: 0
Morningglory plant response rating [7, 10]: 50
Plant response rating, Morningglory [7, 11]: 55
Morningglory plant response rating [7, 12]: 50
Morningglory plant response rating [7, 13]: 20
Plant response rating, Surinam Grass [8, 14]: 10
Plant response rating, Surinam Grass [8, 16]: 50
Plant response rating, Surinam Grass [8, 17]: 60
Surinam Grass plant response rating [8, 18]: 10
Plant response rating, Surinam Grass [8, 19]: 0
Plant response rating, Surinam Grass [8, 20]: 0
Plant response rating, Surinam Grass [8, 21]: 0
Plant response rating, Corn [9, 14]: 0
Plant response rating, Corn [9, 15]: 0
Plant response rating, Corn [9, 16]: 10
Plant response rating, Corn [9, 17]: 40
Corn plant response rating [9, 18]: 25
Plant response rating, Corn [9, 19]: 10
Plant response rating, Corn [9, 20]: 10
Plant response rating, Corn [9, 21]: 0

CCc1nc(C(C)(C)C)sc1C(=O)Nc1cccc(C(=O)NCC2CC2)c1 [Compound 212]
Velvetleaf plant response rating [1, 10]: 35
Plant response rating, Velvetleaf [1, 11]: 35
Velvetleaf plant response rating [1, 12]: 100
Velvetleaf plant response rating [1, 13]: 65
Foxtail, Giant plant response rating [2, 10]: 45
Plant response rating, Foxtail, Giant [2, 11]: 80
Foxtail, Giant plant response rating [2, 12]: 95
Foxtail, Giant plant response rating [2, 13]: 70
Plant response rating, Pigweed [3, 14]: 100
Plant response rating, Pigweed [3, 15]: 100
Plant response rating, Pigweed [3, 16]: 100
Plant response rating, Pigweed [3, 17]: 100
Pigweed plant response rating [3, 18]: 90
Plant response rating, Pigweed [3, 19]: 70
Plant response rating, Pigweed [3, 21]: 50
Plant response rating, Velvetleaf [4, 14]: 20
Plant response rating, Velvetleaf [4, 15]: 100
Plant response rating, Velvetleaf [4, 16]: 100
Plant response rating, Velvetleaf [4, 17]: 100
Velvetleaf plant response rating [4, 18]: 70
Plant response rating, Velvetleaf [4, 19]: 50
Plant response rating, Velvetleaf [4, 21]: 0
Plant response rating, Lambsquarters [5, 14]: 100
Plant response rating, Lambsquarters [5, 15]: 100
Plant response rating, Lambsquarters [5, 16]: 100
Plant response rating, Lambsquarters [5, 17]: 100
Lambsquarters plant response rating [5, 18]: 100
Plant response rating, Lambsquarters [5, 19]: 90
Plant response rating, Lambsquarters [5, 20]: 90
Plant response rating, Lambsquarters [5, 21]: 80
Plant response rating, Kochia [6, 14]: 85
Plant response rating, Kochia [6, 15]: 85
Plant response rating, Kochia [6, 16]: 90
Plant response rating, Kochia [6, 17]: 95
Kochia plant response rating [6, 18]: 90
Plant response rating, Kochia [6, 19]: 90
Plant response rating, Kochia [6, 20]: 80
Plant response rating, Kochia [6, 21]: 80
Morningglory plant response rating [7, 10]: 15
Plant response rating, Morningglory [7, 11]: 20
Morningglory plant response rating [7, 12]: 65
Morningglory plant response rating [7, 13]: 30
Plant response rating, Surinam Grass [8, 14]: 0
Plant response rating, Surinam Grass [8, 15]: 0
Plant response rating, Surinam Grass [8, 16]: 5
Plant response rating, Surinam Grass [8, 17]: 20
Surinam Grass plant response rating [8, 18]: 50
Plant response rating, Surinam Grass [8, 19]: 20
Plant response rating, Surinam Grass [8, 20]: 5
Plant response rating, Surinam Grass [8, 21]: 0
Plant response rating, Corn [9, 14]: 0
Plant response rating, Corn [9, 15]: 0
Plant response rating, Corn [9, 16]: 30
Plant response rating, Corn [9, 17]: 40
Corn plant response rating [9, 18]: 40
Plant response rating, Corn [9, 19]: 40
Plant response rating, Corn [9, 20]: 35
Plant response rating, Corn [9, 21]: 15
